Columns and labels:
[1] = Degradation products by HPLC of binary mixtures and formulations of ezatiostat hydrochloride over time; format: physicochemical; conditions: 40° C. and 75% RH
Procedure: (§1) Further, ezatiostat hydrochloride was mixed with each of the excipients mentioned in Table 3. The quantity of excipient used was determined by the desired properties of the resulting formulation. These blends were prepared in scintillation vials which were screw Teflon capped and stored at 40° C. and 75% RH.
The degradation products were evaluated for each sample using HPLC at initial, 4 weeks, and 8 weeks period. For the initial and 4 week samples, the HPLC autosampler temperature was set at ambient but it was set at 5° C. for samples tested at 8 weeks. The autosampler temperature was lowered due to an observation that individual impurities were increasing during the HPLC run.
The inconsistent results obtained at four weeks were attributed to higher temperature used during HPLC. For this reason, the data at four weeks is not probative for the underlying study.

[2] = Potency results of ezatiostat hydrochloride in binary mixtures, formulations and alone stored at 40° C. and 75% RH; format: physicochemical; conditions: for Potency: 40° C. and 75% RH
Procedure: as §1
The potency results of ezatiostat hydrochloride in the binary mixtures of Table 3, Formulations 1 and 2 of Table 2, and ezatiostat hydrochloride alone stored at 40° C. and 75% RH are shown in Table 4.

[3] = 4 weeks, autosampler ambient (data called not probative)

- RS(% Area) RRT 0.74 ([1]; 0 weeks, autosampler ambient): 0.13% Area
- RS(% Area) RRT 0.88 ([1]; 0 weeks, autosampler ambient): 0.09% Area
- RS(% Area) Total ([1]; 0 weeks, autosampler ambient): 0.22% Area
- RS(% Area) RRT 0.74 [1, 3]: 0.28% Area
- RS(% Area) RRT 0.88 [1, 3]: 0.27% Area
- RS(% Area) Total [1, 3]: 0.55% Area
- RS(% Area) RRT 0.74 ([1]; 8 weeks, autosampler 5° C.): 0.07% Area
- RS(% Area) RRT 0.88 ([1]; 8 weeks, autosampler 5° C.): 0.51% Area
- RS(% Area) Total ([1]; 8 weeks, autosampler 5° C.): 0.58% Area
- RS(% Area) RRT 0.88 ([1]; 8 weeks, autosampler 5° C., listed as ezatiostat hydrochloride): 0.51 % Area
- Potency ([2]; T = 0 weeks): 102.1%
- Potency ([2]; T = 4 weeks): 102.0%
- Potency ([2]; T = 8 weeks): 100.4%
- Potency change over eight weeks ([2]; storage at 40° C. and 75% RH): little change
SMILES: CCOC(=O)[C@@H](N)CCC(=O)N[C@@H](CSCc1ccccc1)C(=O)N[C@@H](C(=O)OCC)c1ccccc1.Cl [Ezatiostat•HCl, ethyl (2S)-2-amino-5-[[(2R)-3-benzylsulfanyl-1-[[(JR)-2-ethoxy-2-oxo-1-phenylethyl]amino]-1-oxopropan-2-yl]amino]-5-oxopentanoate]
- Excipient compatibility ([2]; eight weeks at 40° C. and 75% RH): compatible with all the excipients investigated above

Reference: patent publication US20120283325A1, “EXCIPIENT COMPATIBILITY WITH EZATIOSTAT” (Telik, Inc., priority 2011, published 2012)
